What was measured:
Format in all cases: in vivo
[1] = system: yellow fever mosquito (Aedes aegypti); experiment: whole plant or invertebrate; details: 48 h, larval mortality after 2 days, read-out: mortality in comparison with untreated controls
Procedure: For evaluating control of yellow fever mosquito (Aedes aegypti) the test unit consisted of 96-well-microtiter plates containing 200 μl of tap water per well and 5-15 freshly hatched A. aegypti larvae. The active compounds were formulated using a solution containing 75% (v/v) water and 25% (v/v) DMSO. Different concentrations of formulated compounds or mixtures were sprayed onto the insect diet at 2.5 μl, using a custom built micro atomizer, at two replications. After application, microtiter plates were incubated at 28+1° C., 80+5% RH for 2 days. Larval mortality was then visually assessed.

[2] = system: boll weevil (Anthonomus grandis); experiment: Boll weevil (Anthonomus grandis) egg and larval mortality, insect diet microtiter plate; details: 120 h, read-out: mortality in comparison with untreated controls
Procedure: For evaluating control of boll weevil (Anthonomus grandis) the test unit consisted of 96-well-microtiter plates containing an insect diet and 5-10 A. grandis eggs. The compounds were formulated using a solution containing 75% v/v water and 25% v/v DMSO. Different concentrations of formulated compounds were sprayed onto the insect diet at 5 μl, using a custom built micro atomizer, at two replications. After application, microtiter plates were incubated at about 25±1° C. and about 75±5% relative humidity for 5 days. Egg and larval mortality was then visually assessed.

[3] = system: tobacco budworm (Heliothis virescens); experiment: Tobacco budworm (Heliothis virescens) egg and larval mortality, insect diet microtiter plate; details: 120 h, read-out: mortality in comparison with untreated controls
Procedure: For evaluating control of tobacco budworm (Heliothis virescens) the test unit consisted of 96-well-microtiter plates containing an insect diet and 15-25 H. virescens eggs.
The compounds were formulated using a solution containing 75% v/v water and 25% v/v DMSO. Different concentrations of formulated compounds were sprayed onto the insect diet at 10 μl, using a custom built micro atomizer, at two replications. After application, microtiter plates were incubated at about 28±1° C. and about 80±5% relative humidity for 5 days. Egg and larval mortality was then visually assessed.

[4] = system: Southern Armyworm (Spodoptera eridania), 2nd instar larvae; experiment: Southern armyworm (Spodoptera eridania) 2nd instar larvae mortality on sprayed lima bean plants; details: 96 h, read-out: mortality in comparison with untreated controls
Procedure: The active compounds were formulated by a Tecan liquid handler in 100% cyclohexanone as a 10,000 ppm solution supplied in tubes. The 10,000 ppm solution was serially diluted in 100% cyclohexanone to make interim solutions. These served as stock solutions for which final dilutions were made by the Tecan in 50% acetone:50% water (v/v) into 10 or 20 ml glass vials. A nonionic surfactant (Kinetic®) was included in the solution at a volume of 0.01% (v/v). The vials were then inserted into an automated electrostatic sprayer equipped with an atomizing nozzle for application to plants/insects. Lima bean plants (variety Sieva) were grown 2 plants to a pot and selected for treatment at the 1st true leaf stage. Test solutions were sprayed onto the foliage by an automated electrostatic plant sprayer equipped with an atomizing spray nozzle. The plants were dried in the sprayer fume hood and then removed from the sprayer. Each pot was placed into perforated plastic bags with a zip closure. Ten to 11 armyworm larvae were placed into the bag and the bags zipped closed. Test plants were maintained in a growth room at about 25° C. and about 20-40% relative humidity for 4 days, avoiding direct exposure to fluorescent light (14:10 light:dark photoperiod) to prevent trapping of heat inside the bags. Mortality and reduced feeding were assessed 4 days after treatment, compared to untreated control plants.

[5] = system: Green Peach Aphid (Myzus persicae); experiment: Green peach aphid (Myzus persicae) mortality on sprayed bell pepper plants; details: 120 h, read-out: mortality in comparison with untreated controls
Procedure: The active compounds were formulated by a Tecan liquid handler in 100% cyclohexanone as a 10,000 ppm solution supplied in tubes. The 10,000 ppm solution was serially diluted in 100% cyclohexanone to make interim solutions. These served as stock solutions for which final dilutions were made by the Tecan in 50% acetone:50% water (v/v) into 10or 20 ml glass vials. A nonionic surfactant (Kinetic®) was included in the solution at a volume of 0.01% (v/v). The vials were then inserted into an automated electrostatic sprayer equipped with an atomizing nozzle for application to plants/insects. Bell pepper plants at the first true-leaf stage were infested prior to treatment by placing heavily infested leaves from the main colony on top of the treatment plants. Aphids were allowed to transfer overnight to accomplish an infestation of 30-50 aphids per plant and the host leaves were removed. The infested plants were then sprayed by an automated electrostatic plant sprayer equipped with an atomizing spray nozzle. The plants were dried in the sprayer fume hood, removed, and then maintained in a growth room under fluorescent lighting in a 14:10 light:dark photoperiod at about 25° C. and about 20-40% relative humidity. Aphid mortality on the treated plants, relative to mortality on untreated control plants, was determined after 5 days.

[6] = system: Red Spider Mite (Tetranychus kanzawai); experiment: Red spider mite (Tetranychus kanzawai) mortality on sprayed cowpea beans; details: 72 h, read-out: mortality in comparison with untreated controls
Procedure: The active compound is dissolved at the desired concentration in a mixture of 1:1 (vol:vol) distilled water:acetone. Add surfactant (Kinetic) is added at a rate of 0.01% (vol/vol). The test solution is prepared at the day of use. Potted cowpea beans of 4-5 days of age are cleaned with tap water and sprayed with 1-2 ml of the test solution using air driven DeVilbiss® hand atomizer at 20-30 psi (≈1.38 to 2.07 bar). The treated plants are allowed to air dry and afterwards inoculated with 30 or more mites by clipping a cassava leaf section from rearing population. Treated plants are placed inside a holding room at about 25-26° C. and about 65-70% relative humidity. Estimate percent mortality is assessed 72 hours after treatment.

CCS(=O)(=O)c1cc(-c2ccc(F)cc2)cnc1-c1cn2c(n1)SCc1c-2cccc1C(F)(F)F [Compound I.1, 2-[3-ethylsulfonyl-5-(4-fluorophenyl)-2-pyridyl]-6-(trifluoromethyl)-5H-imidazo[1,2-a][3,1]benzothiazine]
> 70%: mortality at 80 ppm [1] | mortality at 10 ppm [2] | mortality at 30 ppm [3] | mortality at 1 ppm [4]

CCS(=O)(=O)c1cc(-c2ccc(F)cc2)cnc1-c1cn2c(n1)CSc1c-2cccc1C(F)(F)F [Compound I.2, 2-[3-ethylsulfonyl-5-(4-fluorophenyl)-2-pyridyl]-6-(trifluoromethyl)-4H-imidazo[2,1-c][1,4]benzothiazine]
> 70%: mortality at 80 ppm [1] | mortality at 10 ppm [2] | mortality at 30 ppm [3] | mortality at 90 ppm [5] | mortality at 1 ppm [4]

CCS(=O)(=O)c1cc(-c2ccc(F)cc2)cnc1-c1cn2c(n1)OCc1c-2cccc1C(F)(F)F [Compound I.3, 2-[3-ethylsulfonyl-5-(4-fluorophenyl)-2-pyridyl]-6-(trifluoromethyl)-5H-imidazo[1,2-a][3,1]benzoxazine]
> 70%: mortality at 80 ppm [1] | mortality at 10 ppm [2] | mortality at 30 ppm [3] | mortality at 90 ppm [5] | mortality at 800 ppm [6] | mortality at 1 ppm [4]

CCS(=O)(=O)c1cc(-c2ccc(F)cc2)cnc1-c1cn2c(n1)COc1c-2cccc1C(F)(F)F [Compound I.4, 2-[3-ethylsulfonyl-5-(4-fluorophenyl)-2-pyridyl]-6-(trifluoromethyl)-4H-imidazo[2,1-c][1,4]benzoxazine]
> 70%: mortality at 80 ppm [1] | mortality at 10 ppm [2] | mortality at 30 ppm [3] | mortality at 1 ppm [4]

CCS(=O)(=O)c1cc(N=S(C)(C)=O)cnc1-c1cn2c(n1)COc1c-2cccc1C(F)(F)F [Compound I.5, [5-ethylsulfonyl-6-[6-(trifluoromethyl)-4H-imidazo[2,1-c][1,4]benzoxazin-2-yl]-3-pyridyl]imino-dimethyl-oxo-lambda6-sulfane]
> 70%: mortality at 250 ppm ([1]; 250 ppm) | mortality at 250 ppm [2] | mortality at 250 ppm [5]
